Consider seven compounds from patent publication US9302018B2, “Fluorescent probe for imaging lymph nodes” (Eisai R&D Management Co., Ltd., priority 2010, dated 2016).

A short description of data set [1]: Maximum absorbance wavelength and molar extinction coefficient in ethanol. Particulars: for Molar Extinction Coefficient (ε): in ethanol; for λmax (EtOH): maximum absorbance wavelength in ethanol. The data set is classed as physicochemical.
Data set [2] is described as follows: Fluorescence lifetime (TemPro fluorescence lifetime photometer). The data set is classed as physicochemical. Particulars: excitation 740 nm, fluorescence 816 nm. The procedure: The fluorescence lifetimes of the fluorescence probes of the present invention were measured. The TemPro fluorescence lifetime photometer (manufactured by Horiba, Ltd.) was used for measurement. Table 3 indicates the values for a chloroform solution containing each near-infrared fluorescent dye at a concentration of 3.2×10^−2 mM and an aqueous solution of ICG (control), and Table 4 indicates values obtained from each of the near-infrared fluorescent dyes incorporated in the liposomes at a concentration of 3.2×10^−2 mM. A 740 nm semiconductor laser was used for the excitation light, and the lifetime spectra obtained at a fluorescence wavelength of 816 nm was analyzed for two components.

The subject of data set [3] is mouse popliteal lymph node. The experiment in a line: Fluorescent probe anchoring property in mouse popliteal lymph node. The data set is classed as in vivo. The procedure:
In order to investigate the lymph node anchoring property of the fluorescent probe, an ICG-8-containing fluorescent probe dispersion (liposome mean particle diameter: 240 nm, 0.2 mL, phospholipid concentration: 10 mM) or an ICG aqueous solution serving as a control (0.2 mL, 3.2 mM) was injected into the foreleg of mice (FIG. 6A) in the same manner as Example 5. Ten minutes later, the epidermal tissue was peeled off, and the site was irradiated with excitation light (LED light source, <780 nm) and the generated fluorescence (>810 nm) was detected with a monochromatic camera.
To investigate primary lymph node anchoring rate after the passage of a prescribed amount of time, an ICG-8-containing fluorescent probe or ICG aqueous solution was administered to mice in the same manner as described above. […] The p-values were calculated using Fisher's exact test.

Data set [4] in a line: Fluorescence detectability of fluorescent probe in vitro (brightness score, Image J). The data set is classed as physicochemical. Particulars: excitation <780 nm, fluorescence >810 nm. The procedure:
Near-infrared fluorescence intensity was measured for the fluorescent dye-containing liposomes prepared in the manner described above with an aqueous solution of ICG serving as a control. 100 μL of liposome suspension containing a dye of a predetermined concentration or the ICG aqueous solution were added to a 96-well plate and irradiated with excitation light (LED light source, <780 nm) to detect the generated fluorescence (>810 nm). Brightness was evaluated using Image J image processing software.
In the table, values indicate the brightness score as determined with the Image J software (maximum value: 255), with the values shown in parentheses indicate the standard deviation.

Where [5] appears, read: chloroform solution, 3.2×10^−2 mM.

`CC1(C)C(/C=C/C=C/C=C/C=C2/N(CCC(=O)O)c3ccc4ccccc4c3C2(C)C)=[N+](CCCCS(=O)(=O)[O-])c2ccc3ccccc3c21` [ICG-6, 4-(2-((1E,3E,5E,7E)-7-(3-(2-carboxyethyl)-1,1-dimethyl-1H-benzo[e]indol-2-(3H)-ylidene)hepta-1,3,5-trienyl)-1,1-dimethyl-1H-benzo[e]indolium-3-yl)butane-1-sulfonic acid]: in data set [1], the “Molar Extinction Coefficient (ε)” value is 1.86×10^5 and the “λmax (EtOH)” value is on record as 786 nm.

For the compound `CCCCCCCCCCN1/C(=C/C=C/C=C/C=C/C2=[N+](CCCCS(=O)(=O)[O-])c3ccc4ccccc4c3C2(C)C)C(C)(C)c2c1ccc1ccccc21` [ICG-8-C10, 4(2-((1E,3E,5E,7E)-7-(1,1-dimethyl-3-decyl-1H-benzo[e]indol-2(3H)-ylidene)hepta-1,3,5-trienyl)-1,1-dimethyl-1H-benzo[e]indolium-3-yl)butane-1-sulfonic acid], in data set [1], the “Molar Extinction Coefficient (ε)” value was 2.50 × 10^5 and the “λmax (EtOH)” value is reported as 788 nm. In data set [2] (setting [5]), the “Fluorescence lifetime, first component (%)” value was determined as 67%; the “Fluorescence lifetime, first component (ns)” value was determined as 1.27 ns; the “Fluorescence lifetime, second component (%)” value came to 33%; the “Fluorescence lifetime, second component (ns)” value is listed as 0.41 ns.

`CCCCCCCCN1/C(=C/C=C/C=C/C=C/C2=[N+](CCCCS(=O)(=O)[O-])c3ccc4ccccc4c3C2(C)C)C(C)(C)c2c1ccc1ccccc21` [ICG-8-C8, 4(2-((1E,3E,5E,7E)-7-(1,1-dimethyl-3-octyl-1H-benzo[e]indol-2(3H)-ylidene)hepta-1,3,5-trienyl)-1,1-dimethyl-1H-benzo[e]indolium-3-yl)butane-1-sulfonic acid]: in data set [1], the “Molar Extinction Coefficient (ε)” value is listed as 2.63×10^5 and the “λmax (EtOH)” value is 788 nm.

As to `CCCCCCN(CCCCCC)c1ccc(OC2=C(/C=C/C3=[N+](CCCCS(=O)(=O)[O-])c4ccc5ccccc5c4C3(C)C)CCC/C2=C\C=C2\N(CCCCS(=O)(=O)[O-])c3ccc4ccccc4c3C2(C)C)cc1.[Na+]` [ICG-9, sodium [4-(2-((E)-2-((E)-2-(4-(dihexyamino)phenoxy)-3-((E)-2-(1,1-dimethyl-3-(4-sulfonatebutyl)-1H-benzo[e]indol-2(3H)-ylidene)ethylidene)cyclohexenyl)vinyl)-1,1-dimethyl-1H-benzo[e]indolium-3-yl)butane-1-sulfonate]], in data set [1], the “Molar Extinction Coefficient (ε)” value is recorded as 1.24×10^5 and the “λmax (EtOH)” value stood at 810 nm.

With `CC1(C)C(/C=C/C=C/C=C/C=C2\N(CCCCS(=O)(=O)[O-])c3ccc4ccccc4c3C2(C)C)=[N+](CCCCS(=O)(=O)[O-])c2ccc3ccccc3c21.[Na+]` [ICG, Indocyanine green], the “Molar Extinction Coefficient (ε)” value in data set [1] is given as 1.47 × 10^5. Moreover, the “λmax (EtOH)” value in data set [1] is listed as 787 nm. Besides, the “No. of mice in which fluorescence was observed in primary lymph node only/total no. of mice in experiment” value in data set [3] (1 h elapsed from administration) was 0/4; in data set [3] (3 h elapsed from administration), 2/5; in data set [3] (6 h elapsed from administration), 0/4; in data set [3] (24 h elapsed from administration) it was 0/3. Moreover, the “Lymph nodes from which fluorescence was detected” value in data set [3] (mice, 0.2 mL into foreleg, ten minutes later, probe liposome mean particle diameter 240 nm, ICG aqueous solution 3.2 mM) was “emitted at the first popliteal lymph node from the foreleg as well as from the second external iliac lymph node”. In addition, the “Fluorescence lifetime, first component (ns)” value in data set [2] (aqueous solution (control)) was 0.01~0.15 ns. The “brightness score (Image J, maximum value: 255), SD in parentheses” value in data set [4] (dye concentration 3.2 mM) is 27(5); in data set [4] (dye concentration 3.2 × 10−1 mM), 38(6); in data set [4] (dye concentration 3.2 × 10−2 mM), 98(5); in data set [4] (dye concentration 3.2 × 10−3 mM), 118(10); in data set [4] (dye concentration 3.2 × 10−4 mM), 61(7).

Turning to `CCCCCCN1/C(=C/C=C/C=C/C=C/C2=[N+](CCCCS(=O)(=O)[O-])c3ccc4ccccc4c3C2(C)C)C(C)(C)c2c1ccc1ccccc21` [ICG-8-C6, 4(2-((1E,3E,5E,7E)-7-(1,1-dimethyl-3-hexyl-1H-benzo[e]indol-2(3H)-ylidene)hepta-1,3,5-trienyl)-1,1-dimethyl-1H-benzo[e]indolium-3-yl)butane-1-sulfonic acid], in data set [1], the “Molar Extinction Coefficient (ε)” value is 2.34×10^5 and the “λmax (EtOH)” value was found to be 787 nm. Moreover, in data set [2] (setting [5]), the “Fluorescence lifetime, first component (%)” value was 69%; the “Fluorescence lifetime, first component (ns)” value was found to be 1.25 ns; the “Fluorescence lifetime, second component (%)” value was 31%; the “Fluorescence lifetime, second component (ns)” value came to 0.31 ns.

On to `CCCCN1/C(=C/C=C/C=C/C=C/C2=[N+](CCCCS(=O)(=O)[O-])c3ccc4ccccc4c3C2(C)C)C(C)(C)c2c1ccc1ccccc21` [ICG-8-C4, 4(2-((1E,3E,5E,7E)-7-(1,1-dimethyl-3-butyl-1H-benzo[e]indol-2(3H)-ylidene)hepta-1,3,5-trienyl)-1,1-dimethyl-1H-benzo[e]indolium-3-yl)butane-1-sulfonic acid], for which, in data set [1], the “Molar Extinction Coefficient (ε)” value is on record as 2.52×10^5 and the “λmax (EtOH)” value is given as 787 nm.
